Experimental data reported in patent publication US12139473B2, “Substituted-N-heteroaryl compounds and uses thereof” (Bionomics Limited, priority 2019, dated 2024).

Biological target: T1, hKv3.1 (Homo sapiens, UniProt P48547)
T1 construct: expressed in transfected cells
T1 sequence (P48547 1-511): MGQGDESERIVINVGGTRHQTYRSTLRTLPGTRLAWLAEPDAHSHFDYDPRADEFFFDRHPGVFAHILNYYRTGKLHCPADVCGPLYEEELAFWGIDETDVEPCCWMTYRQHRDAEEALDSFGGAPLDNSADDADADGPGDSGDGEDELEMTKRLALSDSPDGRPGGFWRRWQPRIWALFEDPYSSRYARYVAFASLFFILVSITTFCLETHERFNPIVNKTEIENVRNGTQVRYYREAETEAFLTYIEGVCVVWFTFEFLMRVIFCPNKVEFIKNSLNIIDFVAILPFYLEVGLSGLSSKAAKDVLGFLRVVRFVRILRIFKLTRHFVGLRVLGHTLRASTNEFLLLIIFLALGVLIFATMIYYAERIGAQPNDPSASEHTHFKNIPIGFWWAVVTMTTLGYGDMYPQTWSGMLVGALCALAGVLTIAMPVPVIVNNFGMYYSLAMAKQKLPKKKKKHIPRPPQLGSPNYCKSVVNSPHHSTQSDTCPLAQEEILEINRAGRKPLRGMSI
Experiment: Automated patch clamp electrophysiology (Patchliner), CHO/Kv3.1 cells
Type: cell-based
Conditions: 10 μM compound, hKv3.1 in CHO-K1, whole-cell; for Kv3.1 Activity at 10 μM Potentiation (%): peak current at voltage step of −10 mV vs vehicle (0.33% DMSO); for Kv3.1 Activity at 10 μM Voltage Shift (mV): voltage shift of the IV curve at V1/2
Method: hKv3.1, hKv3.2, hKv3.3, and hKv3.4 were stably expressed in CHO-K1 (Chinese hamster ovary) cells and kept under constant antibiotic selection. For in vitro assays, cells were maintained in appropriate growth medium at 37° C. and 5% CO2 in a humidified incubator.
hKv3.X expressing cells were plated in T-25 flasks for 3-4 days at 37° C. (no selection antibiotic) prior to use and grown to 80% confluence. Cells were washed twice with PBS (calcium and magnesium free) and detached with a 5-minute treatment at 37° C. with 2-3 mls of Accutase®. Cells were collected, and flask was washed in CHO-SFM II media (Life Technologies Gibco), centrifuged for 2 minutes at ˜110×g and resuspended to obtain a single cell suspension of ˜2-3×10^6 cells/ml.
The intracellular solution contained the following (in mM): KCl 50, NaCl 10, KF 60, EGTA 20, HEPES 10, adjusted to pH 7.2 with KOH and an osmolarity of 285 mOsmol. Seal enhancer was purchased from Nanion (80 mM NaCl, 3 mM KCl, 10 mM MgCl2, 35 mM CaCl2), 10 mM HEPES, pH7.4, 298 mOsmol. The external solution contained (in mM): NaCl 140, KCl 4, CaCl2) 2, MgCl2 1, HEPES 10, Glucose 5, adjusted to pH7.4 and an osmolarity of 298 mOsmol.
All compounds were initially tested at 10 uM at a final DMSO concentration of 0.33%. Compounds were dissolved in dimethylsulfoxide (DMSO) at a stock concentration of 30 mM. The compound was further diluted 1:10 to give a stock concentration of 3 mM in DMSO. The final assay solution was diluted 1:300 in External solution to give a final concentration of 10 uM. For the DMSO Control Buffer 30 uL of DMSO was added to 10 mL buffer.
All electrophysiological recordings were performed at ambient temperature (21-23° C.) using automated patch clamp (Patchliner, Nanion Technologies GmbH) in the whole-cell configuration.
Cell membrane potentials were held at −80 mV, and currents were evoked by voltage steps (1000 ms duration) from −60 to +60 mV in 10 mV increments. This was performed first with vehicle (0.33% DMSO) and then with 10 uM compound, after a 3-minute incubation period. Data was taken from 4 cells per assay.
The recordings were analysed and selected using peak current amplitude (>100 pA at the −10 mV voltage step) in the absence of compound to eliminate unsuitable cells from analysis. Peak current amplitude was measured and recorded for each voltage step and data was normalised to the maximum current at +60 mV. The normalised Kv3.x currents following addition of the compound were then compared with the currents recorded prior to compound addition (vehicle control). Positive modulation was determined as % potentiation at the voltage step of −10 mV=[current (cmpd)/current (veh)]*100−100. % potentiation≥50% was considered acceptable. In addition, voltage shift of the IV curve at V1/2 was measured. V1/2 of ≥−5 mV was also considered acceptable. IV curves were plotted in GraphPad Prism (software version 6.0) and fitted with a Boltzmann equation, where V1/2 is the voltage at half-maximal activation.

Row | SMILES | Kv3.1 Activity at 10 μM Potentiation (%) | Kv3.1 Activity at 10 μM Voltage Shift (mV)
1 | CC1(C)NC(=O)N(c2cc(Oc3cccc4c3CCC4)ncn2)C1=O [Example 32, 3-(6-indan-4-yloxypyrimidin-4-yl)-5,5-dimethyl-imidazolidine-2,4-dione] | 13% | −1.3 mV
2 | CC1(C)NC(=O)N(c2cc(Oc3ccc4c(c3)OCCC4)ncn2)C1=O [Example 33, 3-(6-chroman-7-yloxypyrimidin-4-yl)-5,5-dimethyl-imidazolidine-2,4-dione] | 33% | −1.6 mV
3 | COc1c(C)cc(Oc2cc(N3C(=O)NC(C)(C)C3=O)ncn2)cc1C [Example 35, 3-[6-(4-methoxy-3,5-dimethyl-phenoxy)pyrimidin-4-yl]-5,5-dimethyl-imidazolidine-2,4-dione] | −10% | −0.4 mV
4 | CCOc1cc(Oc2cc(N3C(=O)NC(C)(C)C3=O)ncn2)ccc1C [Example 36, 3-[6-(3-ethoxy-4-methyl-phenoxy)pyrimidin-4-yl]-5,5-dimethyl-imidazolidine-2,4-dione] | 17% | −3.3 mV
5 | Cc1ccc(Oc2cc(N3C(=O)NC(C)(C)C3=O)ncn2)cc1OCC1CC1 [Example 37, 3-[6-[3-(cyclopropylmethoxy)-4-methyl-phenoxy]pyrimidin-4-yl]-5,5-dimethyl-imidazolidine-2,4-dione] | 16% | −1.0 mV
6 | Cc1ccc(Oc2cc(N3C(=O)NC(C)(C)C3=O)ncn2)cc1OC(C)C [Example 38, 3-[6-(3-isopropoxy-4-methyl-phenoxy)pyrimidin-4-yl]-5,5-dimethyl-imidazolidine-2,4-dione] | 18% | −2.0 mV
7 | Cc1ccc(Oc2cc(N3C(=O)NC(C)(C)C3=O)ncn2)cc1OCC(C)C [Example 39, 3-[6-(3-isobutoxy-4-methyl-phenoxy)pyrimidin-4-yl]-5,5-dimethyl-imidazolidine-2,4-dione] | 13% | −2.1 mV
8 | COc1cccc(Oc2cc(N3C(=O)NC(C)(C)C3=O)ncn2)c1C(C)C [Example 40, 3-[6-(2-isopropyl-3-methoxy-phenoxy)pyrimidin-4-yl]-5,5-dimethyl-imidazolidine-2,4-dione] | 23% | −2.1 mV
9 | COc1cc(Oc2cc(N3C(=O)NC(C)(C)C3=O)ncn2)ccc1C(F)(F)F [Example 42, 3-[6-[3-methoxy-4-(trifluoromethyl)phenoxy]pyrimidin-4-yl]-5,5-dimethyl-imidazolidine-2,4-dione] | 11% | +2.0 mV
10 | Cc1ccc(Oc2cc(N3C(=O)NC(C)(C)C3=O)ncn2)cc1OC(F)(F)F [Example 44, 3-[6-[4-methyl-3-(trifluoromethoxy)phenoxy]pyrimidin-4-yl]-5,5-dimethyl-imidazolidine-2,4-dione] | 33% | −2.9 mV
11 | CC1(C)NC(=O)N(c2cc(Oc3ccc4c(c3)OC(F)(F)O4)ncn2)C1=O [Example 45, 3-[6-[(2,2-difluoro-1,3-benzodioxol-5-yl)oxy]pyrimidin-4-yl]-5,5-dimethyl-imidazolidine-2,4-dione] | 19% | −1.7 mV
12 | CC[C@@]1(C)NC(=O)N(c2nccc(Oc3ccc(C)c(OC)c3)n2)C1=O [Example 48, (5R)-5-ethyl-3-[4-(3-methoxy-4-methyl-phenoxy)pyrimidin-2-yl]-5-methyl-imidazolidine-2,4-dione] | 32% | −2.1 mV
13 | COc1cc(Oc2cncc(N3C(=O)NC(C)(C)C3=O)n2)ccc1F [Example 54, 3-[6-(4-fluoro-3-methoxy-phenoxy)pyrazin-2-yl]-5,5-dimethyl-imidazolidine-2,4-dione] | 15% | −0.5 mV
